“Also recorded” adds a separate entry of the source.
Assays:
[1] = tested on: rat cerebellar granule neurons (CGNs); assay: Tat-induced apoptosis of cerebellar granule neurons (TUNEL); assay type: cell-based; conditions: Tat 500 nM, 48 h
Protocol: (§1) CGNs were exposed to HIV-1 Tat (Tat, 500 nM), or vehicle alone (NT), in the presence or absence of the A2A antagonist, ZM241385. After 48 h, cultures were analyzed for the percentage of apoptotic cells using the TUNEL assay. Data represent mean±SEM for one experiment that was performed in triplicate; data are representative of two independent experiments.
as §1, with “(No Tat),” for “(NT),”, “A2AR antagonists, ATL455 and ZM241385, or the A2AR agonists ATL313 and CGS21680.” for “A2A antagonist, ZM241385.”
(1) Primary rat cerebellar granule neurons (CGNs). CGNs represent a highly homogenous population of primary neurons which are susceptible to Tat and PAF-mediated cell killing and have been used in many of previous studies. CGN cells are isolated according to published procedures [Maggirwar, S. B., et al. 1999. J Neurochem 73:578-86] [Tong, N., et al. 2001. Eur J Neurosci 13:1913-22].
78(4): p. […] 22(6): p. 1102-6].
Primary rat cerebellar granule neurons (CGNs) were exposed to a neurotoxic concentration of HIV-1 Tat, in the presence or absence of an A2AR antagonist (ZM241385). […] It is important to note that CGNs express adenosine A2A receptors [Vacas, J., et al. 2003. Brain Res 992:272-280].
Primary cultures of rat cerebellar granule neurons (CGNs) were exposed to HIV-Tat ([…]) alone or together with increasing doses of the A2AR antagonist ATL-455 or A2A agonists ATL313 or CGS21680. Cells are treated with the test compounds for defined time intervals of up to 48 hours (1, 4, 8, 24, and 48 hours).

[2] = tested on: Tat-stimulated TNF release in monocytes; assay: Tat-stimulated TNF release by primary monocytes (ELISA); assay type: cell-based, human; conditions: 4 h
Protocol: Human primary monocytes were treated with Tat (100 nM) in the presence or absence of the A2AR agonist, CGS21680 (CGS; 1 μM) or the A2AR antagonist, ZM241385 (100 nM) for 4 h. TNF levels in culture supernatants were then quantitated by ELISA. Data represent mean+SEM of three replicates, from a single representative experiment
Primary monocytes were seeded in separate triplicate wells, and exposed independently to LPS (100 ng/ml), vehicle (NT) or Tat (100 nM) in the presence or absence of the A2AR agonist, CGS21680 (1 μM). After 4 h, cells were harvested. (A) TNF was measured in cell supernatants by ELISA Mean data values (±S.D.) are shown for the triplicate wells. (B) The corresponding cells from each well in panel A were lysed and subjected to qRTPCR analysis. Each cDNA sample was analyzed in quadruplicate. Assay results are presented as fold induction of gene expression, compared to untreated cells, after normalization to levels of GAPDH. Data represent mean±SD for each individual experimental replicate/well.
Human primary monocytes were treated with Tat (100 nM) in the presence or absence of the A2AR agonist, ATL313 (1-4 nM) or the A2AR antagonist, ATL455 (1-4 nM) for 4 h. TNF levels in culture supernatants were then quantitated by ELISA. […]
Human primary monocytes were treated with Tat (100 nM) in the presence or absence of the A2AR agonist, ATL313 (at the indicated doses) for 4 h. TNF levels in culture supernatants were then quantitated by ELISA. […]
(6) Primary monocytes. […] Results are compared for both populations, as well as purity (as assessed by immunophenotyping using CD14, CD68 and MHC class II).
The effect of an A2AR agonist on TNF release by primary human monocytes was also determined. Monocytes were stimulated with HIV-1 Tat, in the presence or absence of the A2AR agonist CGS21680 or the A2AR antagonist ZM251385 and TNF release was then measured in cell culture supernatants using an ELISA assay.
Quantitative real-time PCR analysis was used to measure TNF message levels in Tat-treated monocytes. […]

[3] = molecular target: T1, human adenosine receptor A3 (Homo sapiens, UniProt P0DMS8); conditions: recombinant human receptor; cited from earlier work
T1 sequence (P0DMS8 1-318): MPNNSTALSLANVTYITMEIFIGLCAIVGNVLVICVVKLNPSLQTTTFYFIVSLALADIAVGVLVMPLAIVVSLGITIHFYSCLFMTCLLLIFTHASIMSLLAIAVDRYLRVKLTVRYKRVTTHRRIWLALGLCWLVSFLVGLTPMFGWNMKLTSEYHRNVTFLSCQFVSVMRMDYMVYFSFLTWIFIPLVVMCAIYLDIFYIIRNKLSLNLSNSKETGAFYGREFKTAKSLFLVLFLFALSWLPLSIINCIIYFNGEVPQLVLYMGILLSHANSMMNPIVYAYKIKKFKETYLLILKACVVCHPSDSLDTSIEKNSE

[4] = molecular target: human adenosine receptor A2A (Homo sapiens, UniProt P29274); conditions: recombinant human receptor; cited from earlier work
[5] = molecular target: T2, human adenosine receptor A2B (Homo sapiens, UniProt P29275); conditions: recombinant human receptor; cited from earlier work
T2 sequence (P29275 1-332): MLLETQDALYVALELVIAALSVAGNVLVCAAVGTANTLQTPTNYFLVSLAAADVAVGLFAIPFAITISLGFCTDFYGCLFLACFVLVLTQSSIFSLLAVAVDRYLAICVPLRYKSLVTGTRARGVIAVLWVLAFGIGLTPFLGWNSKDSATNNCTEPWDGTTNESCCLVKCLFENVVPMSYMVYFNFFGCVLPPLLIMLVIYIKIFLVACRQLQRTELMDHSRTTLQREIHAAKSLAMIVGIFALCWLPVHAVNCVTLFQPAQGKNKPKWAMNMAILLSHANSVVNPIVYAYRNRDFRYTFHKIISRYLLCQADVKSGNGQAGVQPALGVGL

[6] = molecular target: T3, human adenosine receptor A1 (Homo sapiens, UniProt P30542); conditions: recombinant human receptor; cited from earlier work
T3 sequence (P30542 1-326): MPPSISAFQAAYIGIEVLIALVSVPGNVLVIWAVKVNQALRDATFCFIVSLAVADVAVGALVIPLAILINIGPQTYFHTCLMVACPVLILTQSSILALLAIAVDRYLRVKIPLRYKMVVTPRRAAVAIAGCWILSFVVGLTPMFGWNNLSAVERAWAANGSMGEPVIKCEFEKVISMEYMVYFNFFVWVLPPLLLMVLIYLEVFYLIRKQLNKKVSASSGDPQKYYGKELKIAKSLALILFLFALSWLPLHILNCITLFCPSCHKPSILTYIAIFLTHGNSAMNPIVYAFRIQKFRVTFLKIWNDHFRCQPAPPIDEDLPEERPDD

Chain of human adenosine receptor A2A (P29274 whole entry): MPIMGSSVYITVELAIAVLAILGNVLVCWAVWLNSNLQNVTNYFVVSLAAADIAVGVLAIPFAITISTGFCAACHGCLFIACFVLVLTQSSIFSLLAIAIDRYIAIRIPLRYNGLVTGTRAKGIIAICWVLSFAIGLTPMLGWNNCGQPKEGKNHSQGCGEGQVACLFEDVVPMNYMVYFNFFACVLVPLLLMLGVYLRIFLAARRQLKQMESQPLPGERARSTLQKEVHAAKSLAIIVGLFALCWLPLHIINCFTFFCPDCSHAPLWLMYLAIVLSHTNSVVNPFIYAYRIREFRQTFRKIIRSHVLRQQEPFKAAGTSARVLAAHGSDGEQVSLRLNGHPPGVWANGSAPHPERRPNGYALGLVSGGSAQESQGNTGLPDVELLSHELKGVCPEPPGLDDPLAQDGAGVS

**Q.** For `COC(=O)N1CCC(CC#Cc2nc(N)c3ncn(C4OC(C(=O)NC5CC5)C(O)C4O)c3n2)CC1` (stereo not shown) [ATL313, 4-{3-[6-amino-9-(5-cyclopropylcarbamoyl-3,4-dihydroxytetrahydrofuran-2-yl)-9H-purin-2-yl]prop-2-ynyl}piperidine-1-carboxylic acid methyl ester], which “effect on Tat-induced neuronal apoptosis” value [1] is on record?
**A.** did not result in an increase in cell death

**Q.** What about the IC50 ([2]; Homo sapiens, Monocyte, read-out: approximate IC50 for inhibitory effect on Tat-stimulated TNF release in monocytes) of the same molecule?
**A.** < 1 nM

**Q.** And the “effect on Tat-induced monocyte activation (TNF release)” value ([2]; Tat 100 nM, CGS21680 1 μM, ATL313, ATL455 1-4 nM)?
**A.** very similar results; also recorded: opposed

**Q.** What about the Ki [3] of the same molecule?
**A.** 320 nM

**Q.** And the Ki [4]?
**A.** 0.6 nM

**Q.** And the Ki [5]?
**A.** > 1000 nM

**Q.** And the Ki [6]?
**A.** 52 nM
